Reference: patent publication US10420810B2, “Traditional Chinese medicine composition for the treatment of diabetic retinopathy” (priority 2015, dated 2019)

How the values were obtained:
Type in all cases: in vivo, rat
retinal capillaries = assay: Microscopic observation of retinal vascular digest preparation, STZ diabetic rats (Experiment 3); settings: 9 months, PAS staining, result in words
Description: (§1) 48 SPF-grade SD rats, male, 6 weeks old, (220±20) g in weight, were purchased from Huafukang Biotechnology Co., Ltd. After one-week's adaptive feeding, the rats were randomized into the modeling group (36 rats) and normal group (12 rats). The rats were fasted for 12 hours before modeling and given 1% STZ solution according to the body weight of 60 mg/kg via one intraperitoneal injection to induce experiment diabetic rat models. Rats in the normal group were injected with normal saline of the same volume. Blood glucose was monitored 72 hours later, blood was collected via caudal vein, and the modeling was deemed as successful when the blood glucose was ≥16.7 mmol/L for 3 consecutive days; after successful modeling, rats were randomized into the model group (12 rats), TCM composition experiment group (abbreviated as the experiment group, containing 12 rats) and Doxium group (abbreviated as the control group, containing 12 rats). Rats in the experiment group and control group were dosed on the next day after successful modeling. The administered dose of the experiment group was 10 ml/(kg·d) and that of the control group was 250 mg/(kg·d), with the Doxium powders dissolved in 2 mL distilled water. […] In the experiment period, all the rats were given food and drinking water at regular times each day; the changes in the body weight and blood glucose of rats were monitored monthly. […]

retina [1] = assay: Retinal electron microscopy, STZ diabetic rats (Experiment 3); settings: 9 months, result in words
Description: as §1

[2] = test system: iris vessels of diabetic rats; assay: Iris blood flow velocity in STZ diabetic rats; settings: x ± s
Source text: (§2) The modeling was the same as that of Experiment 2. After successful modeling, diabetic rats were randomized into the model group (20 rats), experiment group (30 rats, given the TCM composition prepared according to Experiment 1), control group (Doxium group, 20 rats) and normal group (12 rats). The experiment lasted 300 days. 1.2 Observation Methods and Outcome Measures: The iris blood flow velocity, diameter of iris vessels, density of iris microvessels, endothelial structure of iris microvessels, permeability of iris microvessels and iris unit area blood perfusion volume were observed by the iris vascular perfusion scan and iris fluorescein angiography.

[3] = test system: iris vessels of diabetic rats; assay: Iris unit area blood perfusion volume (laser Doppler scanning) in STZ diabetic rats; settings: x ± s
Source text: as §2

[4] = test system: iris vessels of diabetic rats; assay: Diameter of iris vessels in STZ diabetic rats; settings: 300 days, result in words
Source text: as §2

VEGF = assay: Immunohistochemistry of retinal paraffin sections: whole-layer retinal VEGF expression (Experiment 3); settings: STZ diabetic rats, 9 months, x ± s
Description: as §1

retina [5] = assay: HE staining of retinal paraffin sections, STZ diabetic rats (Experiment 3); settings: 9 months, result in words
Description: as §1

Structure (SMILES): O=S(=O)(O)c1cc(O)ccc1O [Doxium]
- Microscopic observation of retinal vascular digest preparation (retinal capillaries): retinal microvascular changes were significantly prevented or delayed
- Retinal ultrastructure observation (electron microscopy) (retina [1]): the vascular walls of retinal capillaries were still regular and smooth, basement membranes were thickened
- Blood Flow Velocity Index, Post-treatment ([2]; 300 days): 3.25 ± 0.81 min
- Blood Flow Velocity Index, Pre-treatment ([2]; baseline): 1.07 ± 0.07 min
- Iris Unit Area Blood Perfusion Volume, Post-treatment ([3]; 300 days): 133.71 ± 6.89
- Iris Unit Area Blood Perfusion Volume, Pre-treatment ([3]; baseline): 607.45 ± 194.19
- Diameter of iris vessels compared to the model group [4]: no statistically significant difference between the Doxium group and model group
- Whole-layer Retinal VEGF Expression (Gray-scale values), Mean Optical Density Value (VEGF): 0.43 ± 0.09
- Light microscopic observation of HE-stained retinal paraffin sections (retina [5]): the retinal net structure was loose, internal and external granular layers were arranged in a disordered manner, capillaries were dilated, and interstitial edema can be noted
